Data on 16 compounds can be found in patent publication US9073855B2, “BCL-2 selective apoptosis-inducing agents for the treatment of cancer and immune diseases” (AbbVie Inc., priority 2008, dated 2015).

Experiment [1] concerns the target GST-Bcl-2 (Homo sapiens, UniProt P10415). The experiment is described as follows: TR-FRET binding assay, GST-Bcl-2 with F-Bak peptide probe. Particulars: TR-FRET Binding Affinity, GST-Bcl-2, F-Bak peptide probe. Put shortly:
(§1)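 Compounds were serially diluted in DMSO from a 50 μM starting solution (2× the starting concentration; 10% DMSO). Plates were incubated for 3 h at room temperature, and TR-FRET was read with 340/35 nm excitation and emission at 520/525 nm (F-Bak) and 495/510 nm (Tb antibody). Ki values were calculated using Wang's competitive-binding equation.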

The target of experiment [2] is GST-Bcl-XL (Homo sapiens, UniProt Q07817). The experiment is described as follows: TR-FRET binding assay, GST-Bcl-XL with F-Bak peptide probe. Particulars: TR-FRET Binding Affinity, GST-Bcl-XL, F-Bak peptide probe. Summed up:
as §1
For orientation: In TR-FRET formats the signal depends on donor and acceptor labels being close together.

Experiment [3] concerns FL5.12/Bcl-2 cells. The experiment is described as follows: FL5.12/Bcl-2 cell viability assay under IL-3 withdrawal (CellTitre Glo). The following applies: Mus musculus, IL-3 withdrawn 48 hrs, then 24 hrs with compound. In kind it is cell-based, murine. Summed up: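 Cells (1×10^6/ml) are washed, resuspended in medium lacking WEHI-3B conditioned medium as IL-3 source, and held 48 hrs. Compounds are then added at a range of concentrations for 24 hrs, after which CellTitre Glo reports viability.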

GST-Bcl-2, sequence (P10415 whole entry): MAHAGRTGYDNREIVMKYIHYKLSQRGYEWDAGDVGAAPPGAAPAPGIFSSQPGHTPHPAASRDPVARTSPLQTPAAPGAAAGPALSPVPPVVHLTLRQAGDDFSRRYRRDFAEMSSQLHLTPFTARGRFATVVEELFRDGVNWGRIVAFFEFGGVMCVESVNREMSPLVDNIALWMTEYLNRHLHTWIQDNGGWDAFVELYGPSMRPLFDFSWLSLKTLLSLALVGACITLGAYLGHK
GST-Bcl-XL, sequence (Q07817 whole entry): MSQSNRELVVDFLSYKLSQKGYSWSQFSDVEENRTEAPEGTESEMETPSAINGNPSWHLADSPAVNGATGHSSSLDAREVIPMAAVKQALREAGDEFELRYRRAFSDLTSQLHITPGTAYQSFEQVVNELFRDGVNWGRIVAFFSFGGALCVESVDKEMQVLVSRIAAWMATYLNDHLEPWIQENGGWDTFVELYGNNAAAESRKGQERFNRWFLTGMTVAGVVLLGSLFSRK

For orientation: Ki means the dissociation constant of the complex between target and ligand, obtained from inhibition or displacement. Read a high Ki as a looser hold on the target. Broadly, the EC50 is the midpoint of the concentration-response curve. `CC(C)(C)c1ccc(CN2CCN(c3ccc(C(=O)NS(=O)(=O)c4ccc(NCC5CCOCC5)c([N+](=O)[O-])c4)c(Oc4ccc5[nH]ccc5c4)c3)CC2)c(-c2ccc(Cl)cc2)c1` [Example 341, 4-{4-[(5-tert-butyl-4′-chloro-1,1′-biphenyl-2-yl)methyl]piperazin-1-yl}-2-(1H-indol-5-yloxy)-N-({3-nitro-4-[(tetrahydro-2H-pyran-4-ylmethyl)amino]phenyl}sulfonyl)benzamide]: the Ki in experiment [1] was 13 nM; in experiment [2] it was > 660 nM. The 50% effective concentration (EC50) in experiment [3] is > 500 nM.
For the compound `CC(C)(C)c1ccc(CN2CCN(c3ccc(C(=O)NS(=O)(=O)c4ccc(OCC5CCOCC5)c([N+](=O)[O-])c4)c(Oc4ccc5[nH]ccc5c4)c3)CC2)c(-c2ccc(Cl)cc2)c1` [Example 342, 4-{4-[(5-tert-butyl-4′-chloro-1,1′-biphenyl-2-yl)methyl]piperazin-1-yl}-2-(1H-indol-5-yloxy)-N-{[3-nitro-4-(tetrahydro-2H-pyran-4-ylmethoxy)phenyl]sulfonyl}benzamide], the inhibition constant (Ki) in experiment [1] was 25.8 nM; in experiment [2], > 660 nM. In addition, in experiment [3], the EC50 is > 500 nM.
With `CC1(C)CCC(CN2CCN(c3ccc(C(=O)NS(=O)(=O)c4ccc(NCC(F)(F)F)c([N+](=O)[O-])c4)c(Oc4cccc5[nH]ccc45)c3)CC2)=C(c2ccc(Cl)cc2)C1` [Example 343, 4-(4-{[2-(4-chlorophenyl)-4,4-dimethylcyclohex-1-en-1-yl]methyl}piperazin-1-yl)-2-(1H-indol-4-yloxy)-N-({3-nitro-4-[(2,2,2-trifluoroethyl)amino]phenyl}sulfonyl)benzamide], the Ki was 0.576 nM in experiment [1] and > 660 nM in experiment [2]. Also, the EC50 in experiment [3] was 54.9 nM.
Regarding `CC1(C)CCC(CN2CCN(c3ccc(C(=O)NS(=O)(=O)c4ccc(NCC(F)(F)F)c([N+](=O)[O-])c4)c(Oc4ccc5[nH]ccc5c4)c3)CC2)=C(c2ccc(Cl)cc2)C1` [Example 344, 4-(4-{[2-(4-chlorophenyl)-4,4-dimethylcyclohex-1-en-1-yl]methyl}piperazin-1-yl)-2-(1H-indol-5-yloxy)-N-({3-nitro-4-[(2,2,2-trifluoroethyl)amino]phenyl}sulfonyl)benzamide], the inhibitory constant (Ki) in experiment [1] was 0.284 nM; in experiment [2], 447 nM. For the same compound, the EC50 in experiment [3] is 71.5 nM.
In the case of `CC1(C)CCC(CN2CCN(c3ccc(C(=O)NS(=O)(=O)c4cccc(C(=O)NCC5CCOCC5)c4)c(Oc4ccc5[nH]ccc5c4)c3)CC2)=C(c2ccc(Cl)cc2)C1` [Example 345, 4-(4-{[2-(4-chlorophenyl)-4,4-dimethylcyclohex-1-en-1-yl]methyl}piperazin-1-yl)-2-(1H-indol-5-yloxy)-N-[(3-{[(tetrahydro-2H-pyran-4-ylmethyl)amino]carbonyl}phenyl)sulfonyl]benzamide], the inhibition constant (Ki) is 1.15 nM in experiment [1] and > 660 nM in experiment [2]. In addition, the EC50 in experiment [3] is > 500 nM.
With `CC1(C)CCC(CN2CCN(c3ccc(C(=O)NS(=O)(=O)c4ccc(OC[C@H]5COCCO5)c([N+](=O)[O-])c4)c(Oc4ccc5[nH]ccc5c4)c3)CC2)=C(c2ccc(Cl)cc2)C1` [Example 346, 4-(4-{[2-(4-chlorophenyl)-4,4-dimethylcyclohex-1-en-1-yl]methyl}piperazin-1-yl)-N-({4-[(2R)-1,4-dioxan-2-ylmethoxy]-3-nitrophenyl}sulfonyl)-2-(1H-indol-5-yloxy)benzamide], the inhibition constant (Ki) stood at 0.018 nM in experiment [1] and 204 nM in experiment [2]. The EC50 in experiment [3] came out at 17.5 nM.
As to `CC1(C)CCC(CN2CCN(c3ccc(C(=O)NS(=O)(=O)c4ccc(OC[C@@H]5COCCO5)c([N+](=O)[O-])c4)c(Oc4ccc5[nH]ccc5c4)c3)CC2)=C(c2ccc(Cl)cc2)C1` [Example 347, 4-(4-{[2-(4-chlorophenyl)-4,4-dimethylcyclohex-1-en-1-yl]methyl}piperazin-1-yl)-N-({4-[(2S)-1,4-dioxan-2-ylmethoxy]-3-nitrophenyl}sulfonyl)-2-(1H-indol-5-yloxy)benzamide], the inhibition constant Ki was found to be 0.243 nM in experiment [1] and 306 nM in experiment [2]. Further, in experiment [3], the half-maximal effective concentration (EC50) turned out to be 46.8 nM.
In the case of `CC1(C)CCC(CN2CCN(c3ccc(C(=O)NS(=O)(=O)c4ccc(NCCCN5CCOCC5)c(S(=O)(=O)C(F)(F)F)c4)c(Oc4ccc5[nH]ccc5c4)c3)CC2)=C(c2ccc(Cl)cc2)C1` [Example 348, 4-(4-{[2-(4-chlorophenyl)-4,4-dimethylcyclohex-1-en-1-yl]methyl}piperazin-1-yl)-2-(1H-indol-5-yloxy)-N-({4-[(3-morpholin-4-ylpropyl)amino]-3-[(trifluoromethyl)sulfonyl]phenyl}sulfonyl)benzamide], the Ki was found to be 0.302 nM in experiment [1] and 29.3 nM in experiment [2]. Also, the EC50 in experiment [3] was found to be 87.2 nM.
For `CC1(C)CCC(CN2CCN(c3ccc(C(=O)NS(=O)(=O)c4ccc(NCCCN5CCOCC5)c(S(=O)(=O)C(F)(F)F)c4)c(Oc4cccc5[nH]ccc45)c3)CC2)=C(c2ccc(Cl)cc2)C1` [Example 349, 4-(4-{[2-(4-chlorophenyl)-4,4-dimethylcyclohex-1-en-1-yl]methyl}piperazin-1-yl)-2-(1H-indol-4-yloxy)-N-({4-[(3-morpholin-4-ylpropyl)amino]-3-[(trifluoromethyl)sulfonyl]phenyl}sulfonyl)benzamide], in that order: 0.467 nM, 24.2 nM and 146 nM.
As for `CC1(C)CCC(CN2CCN(c3ccc(C(=O)NS(=O)(=O)c4cnc(NCC5CCOCC5)c(Br)c4)c(Oc4ccc5[nH]ccc5c4)c3)CC2)=C(c2ccc(Cl)cc2)C1` [Example 350, N-({5-bromo-6-[(tetrahydro-2H-pyran-4-ylmethyl)amino]pyridin-3-yl}sulfonyl)-4-(4-{[2-(4-chlorophenyl)-4,4-dimethylcyclohex-1-en-1-yl]methyl}piperazin-1-yl)-2-(1H-indol-5-yloxy)benzamide], the Ki is 5.97 nM in experiment [1] and > 660 nM in experiment [2]. In experiment [3], the EC50 amounted to 311 nM.
Turning to `CC1(C)CCC(CN2CCN(c3ccc(C(=O)NS(=O)(=O)c4ccc(NCCN5CCOCC5)c(S(=O)(=O)C(F)(F)F)c4)c(Oc4ccc5[nH]ccc5c4)c3)CC2)=C(c2ccc(Cl)cc2)C1` [Example 351, 4-(4-{[2-(4-chlorophenyl)-4,4-dimethylcyclohex-1-en-1-yl]methyl}piperazin-1-yl)-2-(1H-indol-5-yloxy)-N-({4-[(2-morpholin-4-ylethyl)amino]-3-[(trifluoromethyl)sulfonyl]phenyl}sulfonyl)benzamide], the figures for the inhibition constant (Ki) in experiment [1] and in experiment [2] were 1.58 nM and > 660 nM, respectively. In experiment [3], the half-maximal effective concentration (EC50) worked out at 345 nM.
For `CC1(C)CCC(CN2CCN(c3ccc(C(=O)NS(=O)(=O)c4cnc(NCC5CCOCC5)c(C#N)c4)c(Oc4ccc5[nH]ccc5c4)c3)CC2)=C(c2ccc(Cl)cc2)C1` [Example 352, 4-(4-{[2-(4-chlorophenyl)-4,4-dimethylcyclohex-1-en-1-yl]methyl}piperazin-1-yl)-N-({5-cyano-6-[(tetrahydro-2H-pyran-4-ylmethyl)amino]pyridin-3-yl}sulfonyl)-2-(1H-indol-5-yloxy)benzamide], the Ki is 6.82 nM in experiment [1] and > 660 nM in experiment [2]. Further, the concentration for a half-maximal effect (EC50) in experiment [3] is 156 nM.
For the compound `CN1CCC(Oc2ccc(S(=O)(=O)NC(=O)c3ccc(N4CCN(CC5=C(c6ccc(Cl)cc6)CC(C)(C)CC5)CC4)cc3Oc3ccc4[nH]ccc4c3)cc2[N+](=O)[O-])CC1` [Example 353, 4-(4-{[2-(4-chlorophenyl)-4,4-dimethylcyclohex-1-en-1-yl]methyl}piperazin-1-yl)-2-(1H-indol-5-yloxy)-N-({4-[(1-methylpiperidin-4-yl)oxy]-3-nitrophenyl}sulfonyl)benzamide], the Ki in experiment [1] is 0.292 nM; in experiment [2] it was > 660 nM. Moreover, the EC50 in experiment [3] was 58.3 nM.
As to `CN1CCC(COc2ccc(S(=O)(=O)NC(=O)c3ccc(N4CCN(CC5=C(c6ccc(Cl)cc6)CC(C)(C)CC5)CC4)cc3Oc3ccc4[nH]ccc4c3)cc2[N+](=O)[O-])CC1` [Example 354, 4-(4-{[2-(4-chlorophenyl)-4,4-dimethylcyclohex-1-en-1-yl]methyl}piperazin-1-yl)-2-(1H-indol-5-yloxy)-N-({4-[(1-methylpiperidin-4-yl)methoxy]-3-nitrophenyl}sulfonyl)benzamide], the Ki was 0.036 nM in experiment [1] and 5.41 nM in experiment [2]. Further, the 50% effective concentration (EC50) in experiment [3] came out at 5.6 nM.
For the compound `O=C(NS(=O)(=O)c1ccc(NCC2CCOCC2)c([N+](=O)[O-])c1)c1ccc(N2CCN(CC3=C(c4ccc(Cl)cc4)CCN(CCCO)C3)CC2)cc1Oc1cccc2[nH]ccc12` [Example 355, 4-(4-{[4-(4-chlorophenyl)-1-(3-hydroxypropyl)-1,2,5,6-tetrahydropyridin-3-yl]methyl}piperazin-1-yl)-2-(1H-indol-4-yloxy)-N-({3-nitro-4-[(tetrahydro-2H-pyran-4-ylmethyl)amino]phenyl}sulfonyl)benzamide], the Ki in experiment [1] is 0.12 nM; in experiment [2] it was > 660 nM. The 50% effective concentration (EC50) in experiment [3] was > 500 nM.
For `CC1(C)CCC(CN2CCN(c3ccc(C(=O)NS(=O)(=O)c4ccc(NCC5CCN(C(=O)OCc6ccccc6)CC5)c([N+](=O)[O-])c4)c(Oc4ccc5[nH]ccc5c4)c3)CC2)=C(c2ccc(Cl)cc2)C1` [Example 356, benzyl 4-({[4-({[4-(4-{[2-(4-chlorophenyl)-4,4-dimethylcyclohex-1-en-1-yl]methyl}piperazin-1-yl)-2-(1H-indol-5-yloxy)benzoyl]amino}sulfonyl)-2-nitrophenyl]amino}methyl)piperidine-1-carboxylate], in that order: 5.02 nM, > 660 nM and > 500 nM.
